Patent US12697366B2, “Thermogenic compositions and methods” (Ohio State Innovation Foundation, priority 2016, dated 2026)
Non-standard residues stand in square brackets, D forms with d. Residues, ends and D or L forms follow the SMILES beside them. ξ: configuration not given here. *: point of attachment. Succinyl(20-O-(20S)-CPT) = CC[C@@]1(OC(=O)CCC(=O)*)C(=O)OCc2c1cc1n(c2=O)Cc2cc3ccccc3nc2-1; ξK = NCCCCC(N)C(=O)O; ξC = NC(CS)C(=O)O

Experiments:
NCI-H23 = experiment: MTT cytotoxicity on NCI-H23; format: cell-based, human
Procedure: (§1) The non-oxidized CPT-CCKK nanotube was assessed for cytotoxic efficacy against human non-small cell lung cancer (NSCLC) cell lines A549, NCI-460, and NCI-H23, which were selected according to the indications of approved CPT derivative Topotecan. […] The explanation for the cytotoxicity results could be that CPT-CCKK release active CPT in a time-dependent manner, and the entire true concentration for CPT in the cell medium is less than that of free CPT. […] It has been reported before that the GSH level in H460 was almost twice higher than that in A549. Therefore, higher concentration of GSH in H460 accelerated the breakage of the disulfide bonds within the crosslinked CPT-CCKK nanotubes, leading to faster release of active CPT and higher in vitro cytoxicity.

NCI-460 = experiment: MTT cytotoxicity on NCI-460 (H460); format: cell-based; conditions: Homo sapiens
Procedure: as §1

A549 = experiment: MTT cytotoxicity on A549; format: cell-based; conditions: Homo sapiens
Procedure: as §1

3T3-L1 cells = experiment: LDH release cytotoxicity (CytoTox 96) in 3T3-L1 cells; format: cell-based, mouse; conditions: different concentrations, 6 hours
Procedure: Non-differentiated, 90% confluent 3T3-L1 cells were incubated with different concentrations of nanoscaffolds #1, #2, or #3 for 6 hours. Cytotoxicity was measured the lactate dehydrogenase (LDH), released upon cell lysis using The CytoTox 96 assay (Promega, Cat #G1780).

Q: `CC[C@@]1(OC(=O)CCC(=O)NC(CS)C(=O)NC(CS)C(=O)NC(CCCCN)C(=O)NC(CCCCN)C(N)=O)C(=O)OCc2c1cc1n(c2=O)Cc2cc3ccccc3nc2-1` (stereo partly drawn) [CPT-CCKK] ({Succinyl(20-O-(20S)-CPT)}-[ξC][ξC][ξK][ξK]-NH2) was tested. Which “less cytotoxic than parental drug CPT” value (NCI-H23; H23 cell lines) did it give?
A: Its value is “roughly 3 folds”.

Q: Which results are given for `CC[C@@]1(O)C(=O)OCc2c1cc1n(c2=O)Cc2cc3ccccc3nc2-1` [CPT, Camptothecin]?
A: IC50 (NCI-H23; Homo sapiens, NCI-H23, 96 h MTT, experiment with non-oxidized nanotube (FIG. 36A)): 0.19 µM; IC50 (NCI-460; NCI-460, 96 h MTT, experiment with non-oxidized nanotube (FIG. 36A)): 0.27 µM; IC50 (NCI-460; H460, experiment with crosslinked nanotubes (FIG. 36B)): 0.35 µM; IC50 (A549; 96 h MTT, experiment with non-oxidized nanotube (FIG. 36A)): 0.2 µM; IC50 (A549; experiment with crosslinked nanotubes (FIG. 36B)): ~0.83 µM

Q: For `CCN(CC)c1ccc2cc(C(=O)NCCCC[C@H](NC(=O)[C@H](CCCCN)NC(=O)OCC3c4ccccc4-c4ccccc43)C(N)=O)c(=O)oc2c1` [nanoscaffold #2, Fmoc-KK(DAC)], which “cytotoxicity (LDH release)” value (3T3-L1 cells) is on record?
A: Its value is “not toxic”.

Q: With Fmoc-KK(SucBz) [nanoscaffold #1] as the compound, how does the “cytotoxicity (LDH release)” value (3T3-L1 cells) read?
A: The value was “not toxic”.
